Results published in paper PMC8815882, “Screening the pandemic response box identified benzimidazole carbamates, Olorofim and ravuconazole as promising drug candidates for the treatment of eumycetoma” (PLoS Neglected Tropical Diseases, 2022).
Like-named read-outs stand apart in the source and are kept apart here.

Tested on: M. mycetomatis genome strain MM55
Test: CLSI M38-A2 based in vitro susceptibility screening (XTT or resazurin), growth at fixed concentration
Assay type: cell-based, Madurella mycetomatis
Details: Madurella mycetomatis
[1] = 25 uM, mean of three replicates, read-out: Percentage survival at 25um, 25 uM mean
[2] = 25 uM, replicate A, read-out: Percentage survival at 25um, 25 um A
[3] = 25 uM, replicate B, read-out: Percentage survival at 25um, 25 uM B
[4] = 25 uM, replicate C, read-out: Percentage survival at 25um, 25 uM C
[5] = mean of three replicates, read-out: Percentage survival at 100um, 100 uM mean
[6] = replicate 1, read-out: Percentage survival at 100um, 100 uM A (first replicate column)
[7] = replicate 2, read-out: Percentage survival at 100um, 100 uM A (second replicate column)
[8] = replicate 3, read-out: Percentage survival at 100um, 100 uM A (third replicate column)
[9] = 25 uM, mean of replicates, read-out: Percentage survival at 25um, 25 uM mean
[10] = mean of replicates, read-out: Percentage survival at 100um, 100 uM mean
[11] = replicate 1, read-out: Percentage survival at 100um, 100 uM A
[12] = replicate 2, read-out: Percentage survival at 100um, 100 uM A
[13] = replicate 3, read-out: Percentage survival at 100um, 100 uM A
[14] = 25 uM, mean of three, M. mycetomatis MM55, read-out: Percentage survival at 25um, 25 uM mean
[15] = 25 uM, replicate A, M. mycetomatis MM55, read-out: Percentage survival at 25um, 25 um A
[16] = 25 uM, replicate B, M. mycetomatis MM55, read-out: Percentage survival at 25um, 25 uM B
[17] = 25 uM, replicate C, M. mycetomatis MM55, read-out: Percentage survival at 25um, 25 uM C
[18] = mean of three, M. mycetomatis MM55, read-out: Percentage survival at 100um, 100 uM mean
[19] = replicate 1, M. mycetomatis MM55, read-out: Percentage survival at 100um, 100 uM A (first replicate column)
[20] = replicate 2, M. mycetomatis MM55, read-out: Percentage survival at 100um, 100 uM A (second replicate column)
[21] = replicate 3, M. mycetomatis MM55, read-out: Percentage survival at 100um, 100 uM A (third replicate column)
[22] = 25 uM, mean of replicates, MM55, read-out: Percentage survival at 25um, 25 uM mean
[23] = 25 uM, replicate A, MM55, read-out: Percentage survival at 25um, 25 um A
[24] = 25 uM, replicate B, MM55, read-out: Percentage survival at 25um, 25 uM B
[25] = 25 uM, replicate C, MM55, read-out: Percentage survival at 25um, 25 uM C
[26] = mean of replicates, MM55, read-out: Percentage survival at 100um, 100 uM mean
[27] = replicate 1, MM55, read-out: Percentage survival at 100um, 100 uM A
[28] = replicate 2, MM55, read-out: Percentage survival at 100um, 100 uM A
[29] = replicate 3, MM55, read-out: Percentage survival at 100um, 100 uM A
[30] = 25 uM, mean, read-out: Percentage survival at 25um, 25 uM mean
[31] = mean, read-out: Percentage survival at 100um, 100 uM mean
[32] = replicate (first column), read-out: Percentage survival at 100um, 100 uM A
[33] = replicate (second column), read-out: Percentage survival at 100um, 100 uM A
[34] = replicate (third column), read-out: Percentage survival at 100um, 100 uM A
[35] = first replicate column, read-out: Percentage survival at 100um, 100 uM A
[36] = second replicate column, read-out: Percentage survival at 100um, 100 uM A
[37] = third replicate column, read-out: Percentage survival at 100um, 100 uM A

O=c1nc(N2CCN(CC3CCCCC3)CC2)sc2c([N+](=O)[O-])cc(C(F)(F)F)cc12 [MMV1578885]
activity at 25 µM [1]: 90.5%
activity at 25 µM [2]: 84.1%
activity at 25 µM [3]: 98%
activity at 25 µM [4]: 89.5%
activity at 100 µM [5]: 82.7%
activity at 100 µM [6]: 87.8%
Percent fungal survival at 100 µM [7]: 75.6%
activity at 100 µM [8]: 84.8%

CCOC(=O)N1CCN(c2ccc(Cl)cc2)CC1 [MMV1578898]
activity at 25 µM [9]: 83.5%
activity at 25 µM [2]: 91.8%
activity at 25 µM [3]: 91.8%
activity at 25 µM [4]: 66.9%
activity at 100 µM [10]: 47.7%
activity at 100 µM [11]: 38.1%
activity at 100 µM [12]: 63.1%
activity at 100 µM [13]: 42%

COc1ccc(NC(=O)CC2Sc3ncnn3C2=O)cc1 (stereo not drawn) [MMV1483032]
activity at 25 µM [14]: 78.4%
activity at 25 µM [15]: 82.6%
activity at 25 µM [16]: 81.9%
activity at 25 µM [17]: 70.7%
activity at 100 µM [18]: 36%
activity at 100 µM [19]: -1.84%
Percent fungal survival at 100 µM [20]: 1.55%
activity at 100 µM [21]: 108%

O=C(NO)C1(CS(=O)(=O)c2ccc(Oc3ccc(Cl)cc3)cc2)CCOCC1 [MMV690706]
activity at 25 µM [22]: 82%
activity at 25 µM [23]: 85.7%
activity at 25 µM [24]: 90.9%
activity at 25 µM [25]: 69.4%
activity at 100 µM [26]: 68.5%
activity at 100 µM [27]: 72.4%
activity at 100 µM [28]: 62.8%
activity at 100 µM [29]: 70.2%

COc1ccc(C[C@@H](C)[C@@H](C)Cc2ccc(OC)c(OC)c2)cc1OC [MMV1581036]
activity at 25 µM [22]: 68.5%
activity at 25 µM [23]: 72.1%
activity at 25 µM [24]: 71.5%
activity at 25 µM [25]: 61.9%
activity at 100 µM [26]: 52.6%
activity at 100 µM [27]: 50.8%
activity at 100 µM [28]: 58.7%
activity at 100 µM [29]: 48.3%

CCc1ccc(C2CC(C(F)(F)F)n3ncc(C(=O)NCc4ccc(OC)cc4)c3N2)cc1 (stereo not drawn) [MMV831201]
activity at 25 µM [9]: 64.1%
activity at 25 µM [2]: 65%
activity at 25 µM [3]: 56.7%
activity at 25 µM [4]: 70.7%
activity at 100 µM [10]: 67.5%
activity at 100 µM [11]: 62%
activity at 100 µM [12]: 63%
activity at 100 µM [13]: 77.5%

Cc1nc(-c2ccc(C3N(C)c4ccc(F)cc4C(=O)N3c3ccccc3)s2)cs1 (stereo not drawn) [MMV1582492]
activity at 25 µM [14]: 71%
activity at 25 µM [15]: 80%
activity at 25 µM [16]: 73.5%
activity at 25 µM [17]: 59.4%
activity at 100 µM [18]: 79.4%
activity at 100 µM [19]: 66.4%
Percent fungal survival at 100 µM [20]: 101%
activity at 100 µM [21]: 70.8%

CCCCCCC1c2ccc(O)cc2Oc2cc(O)ccc21 [MMV1593535]
activity at 25 µM [30]: 72.3%
activity at 25 µM [2]: 72.8%
activity at 25 µM [3]: 89.7%
activity at 25 µM [4]: 54.6%
activity at 100 µM [31]: 21.5%
activity at 100 µM [32]: 10.9%
activity at 100 µM [33]: 14.4%
activity at 100 µM [34]: 39.1%

CCN(CC)CCCC(C)Nc1ccnc2cc(Cl)ccc12 (stereo not drawn) [MMV000008]
activity at 25 µM [2]: 87.2%
activity at 100 µM [5]: 62.1%
activity at 100 µM [6]: 45.5%
activity at 100 µM [7]: 61%
activity at 100 µM [8]: 79.8%
activity at 25 µM (read-out: Percentage survival at 25um, 25 uM B): 72.9%
activity at 25 µM (read-out: Percentage survival at 25um, 25 uM C): 80.7%
activity at 25 µM (read-out: Percentage survival at 25um, 25 uM mean): 80.3%

CC(C)/N=c1\cc2n(-c3ccc(Cl)cc3)c3ccccc3nc-2cc1Nc1ccc(Cl)cc1 [MMV687800]
activity at 25 µM [14]: 71%
activity at 25 µM [15]: 77.2%
activity at 25 µM [16]: 68.8%
activity at 25 µM [17]: 67.2%
activity at 100 µM [18]: 71.4%
activity at 100 µM [19]: 65.1%
Percent fungal survival at 100 µM [20]: 75.2%
activity at 100 µM [21]: 73.9%

CCNC(=O)Nc1cc2c(-c3ccnc(C)c3)ccc(CNC(=O)OC)c2cn1 [MMV1634390]
activity at 25 µM [14]: 86.2%
activity at 25 µM [15]: 98.4%
activity at 25 µM [16]: 81%
activity at 25 µM [17]: 79.2%
activity at 100 µM [18]: 52.4%
activity at 100 µM [19]: 60.4%
Percent fungal survival at 100 µM [20]: 7.35%
activity at 100 µM [21]: 89.5%

C=CCc1cc(Cc2cnc(N)nc2N)cc(OC)c1O [MMV1580849]
activity at 25 µM [9]: 96.4%
activity at 25 µM [2]: 100%
activity at 25 µM [3]: 95.7%
activity at 25 µM [4]: 93.6%
activity at 100 µM [10]: 91.3%
activity at 100 µM [11]: 101%
activity at 100 µM [12]: 86.2%
activity at 100 µM [13]: 86.7%

O=[N+]([O-])c1cn(Cc2nc(O)nc(O)c2Br)cn1 [MMV1579777]
activity at 25 µM [9]: 94.1%
activity at 25 µM [2]: 98.9%
activity at 25 µM [3]: 96.8%
activity at 25 µM [4]: 86.6%
activity at 100 µM [10]: 87.1%
activity at 100 µM [11]: 96.7%
activity at 100 µM [12]: 83.9%
activity at 100 µM [13]: 80.7%

NC(=O)c1ccc(I)c([N+](=O)[O-])c1 [MMV1581035]
activity at 25 µM [1]: 97.6%
activity at 25 µM [2]: 97.2%
activity at 25 µM [3]: 103%
activity at 25 µM [4]: 92.5%
activity at 100 µM [35]: 89.6%
activity at 100 µM [5]: 90.1%
activity at 100 µM [36]: 93.1%
activity at 100 µM [37]: 87.5%

COc1ccc2c(c1OC)C(=O)OC2C1c2c(cc3c(c2OC)OCO3)CCN1C (stereo not drawn) [MMV002780]
activity at 25 µM [1]: 82%
activity at 25 µM [2]: 86.6%
activity at 25 µM [3]: 81.3%
activity at 25 µM [4]: 78.1%
activity at 100 µM [35]: 72.9%
activity at 100 µM [5]: 72.6%
activity at 100 µM [36]: 68.2%
activity at 100 µM [37]: 76.7%

CCCC1(C2CC2)c2cc(Cl)ccc2NC(=O)N1C (stereo not drawn) [MMV1782113]
activity at 25 µM [22]: 68.5%
activity at 25 µM [23]: 67.5%
activity at 25 µM [24]: 76.8%
activity at 25 µM [25]: 61.2%
activity at 100 µM [26]: 56.1%
activity at 100 µM [27]: 52.9%
activity at 100 µM [28]: 56.4%
activity at 100 µM [29]: 58.9%

COc1ccc(NS(=O)(=O)c2ccc(Cl)s2)cn1 [MMV1580499]
activity at 25 µM [1]: 85%
activity at 25 µM [2]: 77.6%
activity at 25 µM [3]: 91.2%
activity at 25 µM [4]: 86.3%
activity at 100 µM [35]: 64.6%
activity at 100 µM [5]: 61.8%
activity at 100 µM [36]: 69.9%
activity at 100 µM [37]: 50.9%

Cc1nc(Nc2ccc(F)cc2)nc(N2CCc3ccccc3C2C)c1C (stereo not drawn) [MMV030787]
activity at 25 µM [30]: 63.9%
activity at 25 µM [2]: 74.6%
activity at 25 µM [3]: 56.2%
activity at 25 µM [4]: 61.1%
activity at 100 µM [31]: 67.5%
activity at 100 µM [32]: 53.1%
activity at 100 µM [33]: 63.5%
activity at 100 µM [34]: 86%

NC(=O)c1nccn([C@@H]2O[C@H](CO)[C@@H](O)[C@H]2O)c1=O [MMV1782104]
activity at 25 µM [1]: 99.8%
activity at 25 µM [2]: 102%
activity at 25 µM [3]: 107%
activity at 25 µM [4]: 90.3%
activity at 100 µM [35]: 97.1%
activity at 100 µM [5]: 86.1%
activity at 100 µM [36]: 97.7%
activity at 100 µM [37]: 63.4%

Cc1cc(C)n(O)c(=O)c1 [MMV1782389]
activity at 25 µM [30]: 81.5%
activity at 25 µM [2]: 87.4%
activity at 25 µM [3]: 82.9%
activity at 25 µM [4]: 74.1%
activity at 100 µM [31]: 81.6%
activity at 100 µM [32]: 67.6%
activity at 100 µM [33]: 78.2%
activity at 100 µM [34]: 99.1%

O=C(O)c1ccc(-n2nc(-c3ccccc3O)nc2-c2ccccc2O)cc1 [MMV640014]
activity at 25 µM [30]: 87%
activity at 25 µM [2]: 94.6%
activity at 25 µM [3]: 88.3%
activity at 25 µM [4]: 78%
activity at 100 µM [31]: 78.4%
activity at 100 µM [32]: 85.5%
activity at 100 µM [33]: 73.2%
activity at 100 µM [34]: 76.5%
